Measurements taken from EP4644377A1, “LIPID COMPOUND FOR GENE DELIVERY AND LIPID NANOPARTICLE COMPRISING SAME” (NANJING CYBERNAX BIOMEDICAL TECHNOLOGY CO., LTD., priority 2022, dated 2024).

Key:
[1] = Particle size detection of LNP (Brookhaven NanoBrook Omni, DLS); format: physicochemical
Procedure: Step 1. Preparation of a lipid solution and a nucleic acid solution: unless otherwise specified, all aqueous solutions involved in examples were prepared from deionized water without nucleases. An ionizable lipid, a phospholipid (disaturated phosphatidylcholine (DSPC) or dioleoylphosphatidylethanolamine (DOPE)), cholesterol and a PEG lipid (DMG-PEG2000) were mixed in a molar ratio of 50/10/38.5/1.5 (containing DSPC, formulation 1) or 36.5/16/46.5/2.5 (containing DOPE, formulation 2) and dissolved into an ethanol solution. Meanwhile, a nucleic acid (a mass ratio of ionizable lipid/nucleic acid was 10/1) was dissolved into a citrate buffer solution of pH=3, so that a final volume ratio of the ethanol solution to the citrate solution was 1/3.
Step 2. Preparation of LNP by mixing the lipid solution with the nucleic acid solution: the lipid ethanol solution and the nucleic acid aqueous solution that were prepared in Step 1 were respectively put into a sterile syringe and placed in a Precision Nanosystem Ignite instrument, the extrusion flow speeds of the ethanol solution and the water phase solution were respectively set as 3 ml/min and 9 ml/min in instrument program settings. A microfluidic chip was inserted into the instrument and LNP preparation was initiated, and then a solution mixed by the chip was collected.
Step 2.1. Preparation of an LNP solution coating nucleic acid in a porous plate: a solution of an ionizable lipid, a phospholipid (DSPC or DOPE), cholesterol and a PEG lipid (DMG-PEG2000) in ethanol was added into each well of a 96-well deep plate, so that a molar ratio of four component lipids in each well was 50/10/38.5/1.5 (containing DSPC, formulation 1) or 36.5/16/46.5/2.5 (containing DOPE, formulation 2). Then, a citrate buffer solution (pH=3, the mass of nucleic acid added into each well was 1/10 that of the ionizable lipid in this well) that was three times as ethanol in volume and dissolved with a nucleic acid molecule was quickly added into the well plate through a multi-channel pipette or an automatic liquid dispensing system and rapidly mixed, so as to obtain the LNP solution coating nucleic acid.
Step 3. Purification of the LNP solution: the LNP solution collected in Step 2 or Step 2.1 was subjected to dialysis-concentration-filtration operations, so as to obtain a final LNP solution coating nucleic acid for subsequent testing.
The LNP solution coating nucleic acid obtained in Step 3 was diluted so that the final lipid concentration was between 0.01 mg/ml and 0.1 mg/ml. The diluted solution was added into a sample reservoir, and then subjected to particle size detection in a Brookhaven NanoBrook Omni instrument.

[2] = system: C57Bl/6 mice; test: Luciferase mRNA delivery in mice, IVIS chemiluminescence; format: in vivo
Procedure: The animal experiments were reviewed and approved by the Ethics Committee of Zhejiang Medical College and the Ethics Committee of Zhejiang University of Technology. 6- to 8-week-old male C57Bl/6 mice were randomly grouped with 3 mice in each group. The mice in each group received a lipid nanoparticle coating mRNA expressing a luciferase via tail vein injection at a dose of 0.25 mg/kg mouse body weight (calculated by the mass of coated mRNA). […] The mRNA delivery effect of the lipid nanoparticle is quantitatively compared through a total chemiluminiscence quantity (Total Flux p/s) of a mouse whole body within unit time (shown in Table 5).
Table 13 and Table 14 show whole body chemiluminescent signals when LNPs (formulation 2) composed of the lipids in some examples deliver Flue mRNA in mice. The delivery dose of Flue mRNA was 0.25 mg/kg. 6 h after LNP injection, 150 mg/kg of D-luciferin was intraperitoneally injected into the mice, and then the whole body chemiluminescent signals were collected in the IVIS imaging system after 10 min. […]

[3] = system: respiratory syncytial virus (RSV); test: RSV mRNA vaccine in mice, RSV true virus neutralizing antibody titers; format: in vivo, BALB/c mice; details: 10 µg per mouse i.m., two immunizations three weeks apart, serum 14 days after the second; result in words versus antigen protein or SM102
Procedure: An RSV antigen mRNA sequence with a pre-fusion F protein conformation was prepared by a cap analogue co-transcription method, the sequence information is as shown in sequence 1 (SEQ ID NO: 1), and the amino acid sequence of the expressed antigen protein is as shown in sequence 2 (SEQ ID NO: 2). LNPs containing RSV-mRNA were prepared by respectively using lipid 174 and sm102 in a lipid ratio of formulation 1, wherein N/P was 6. The particle sizes and mRNA encapsulation efficiency data of two LNPs are as follows: lipid 174 has a particle size of 77.6 nm and an encapsulation efficiency of 96.2%; and sm102 has a particle size of 96.1 nm and an encapsulation efficiency of 97.9%. The LNP preparation encapsulating RSV mRNA and an F protein antigen with a pre-fusion conformation were intramuscularly administrated to BALB/c mice at a dose of 10 µg per mouse, with immunization once every three weeks for two immunizations in total. 14 days after secondary immunization, mouse serum was collected and submitted to CRO for detection of RSV true virus neutralizing antibody titers.

[4] = Determination of total nucleic acid and encapsulation efficiency (Quant-iT RiboGreen RNA kit); format: physicochemical
Procedure: The content of nucleic acids in an LNP sample was determined through a Quant-iT™ RiboGreen® RNA detection kit (Thermofisher). The detection of total RNA concentration: 5 µl of to-be-detected sample was placed into 2 ml of ep tube, 245 µl of 1xTE Buffer was added, and the above materials were evenly mixed to obtain a "diluted sample". 100 µl of the above "diluted sample" was taken, 100 µl of 10% TritonX-100 solution was added, the above materials were sufficiently and evenly mixed, and then the obtained mixture was demulsified for 15 min in metal bath under the conditions of 37°C and 300 rpm; and 80 µl of 1xTE Buffer was added into an ELISA plate, 20 µl of demulsified sample was taken and added into the ELISA plate to be evenly mixed, and then 100 µl of fluorescence dye (2000-fold dilution) solution was added.
Detection of free RNA concentration: 90 µl of 1xTE Buffer was added into the ELISA plate, 10 µl of the above "diluted sample" was taken, and 100 µl of fluorescence dye (2000-fold dilution) solution was added.
Meanwhile, a series of standard solutions having different concentrations were set in the ELISA plate as quantitative standard curves. The samples were loaded onto the ELISA plate to detect fluorescence signals (with an excitation wavelength of 480 nm and an emission detection wavelength of 520). A corresponding RNA concentration was obtained after the fluorescence signal in each well was converted via the standard curve.
Calculation method of encapsulation efficiency: EE(%) = (Concentration of total mRNA−concentration of free mRNA)/(Concentration of total mRNA)∗100% [formula]

[5] = system: A549 cells; test: In vitro delivery of luciferase mRNA by LNPs, A549 cells; format: cell-based, human; details: 100 ng luciferase mRNA per well, 24 h; ratio to naked mRNA control; result in words
Procedure: (§1) Human embryonic kidney cells (293T cells) and human non-small cell lung cancer cell lines (A549 cells) were obtained from the Chinese Type Culture Collection Center and cultured in DMEM high glucose culture medium containing 10% fetal bovine serum under the environment of 37°C and 5% CO2. The cells were inoculated in a 96-well cell culture plate in a density of 32,000 cells per well. LNPs coating mRNA expressing luciferase (Trilink, USA) were taken and added into the wells at a dose of 100 ng of mRNA per well. Meanwhile, control wells were set on each culture plate, and 100 ng of naked mRNA that was not coated by LNPs was added into each well. The cell culture plate was placed in a cell incubator for 24 h of co-culture under the conditions of 37°C and 5% CO2, and then the transfection effect of mRNA was detected through a One-LumiTM firefly luciferase reporter gene detection kit. The transfection results of LNPs in 293T cells are shown in FIG. 1 to FIG. 6 and FIG. 13 (upper), and the transfection results of LNPs in A549 cells are shown in FIG. 7 to FIG. 12 and FIG. 13 (lower). The transfection efficiency is expressed as a ratio of chemiluminescent intensity of LNP group to chemiluminescent intensity of control group (direct delivery of naked luciferase mRNA that is not coated by LNP).

[6] = system: 293T cells; test: In vitro delivery of luciferase mRNA by LNPs, 293T cells; format: cell-based, Human; details: 100 ng luciferase mRNA per well, 24 h; ratio to naked mRNA control; result in words
Procedure: as §1

[7] = system: enhanced green fluorescent protein (EGFP) gene; test: LNP delivery of gene editing system (spCas9 mRNA + sgGFP), GFP knockout by flow cytometry; format: cell-based; details: HEK 293/eGFP-aavs1 cells, 200 ng total RNA per well, 48 h, average
Procedure: LNPs were prepared by using a composition ratio in formulation 2 and simultaneously coating spCas9 mRNA and sgRNA (sgGFP sequence: […]) with lipid 284, wherein N/P was 6, and a mass ratio of mRNA to sgRNA was 3/1. By DLS detection, the particle size of LNP was about 130 nm, PDI was 0.15, and the RNA encapsulation efficiency was greater than 95%. An HEK 293/eGFP-aavs1 stable cell line stably expressing a green fluorescence protein (GFP) was inoculated into a 96-well cell culture plate at a density of 40,000 cells per well. After incubation for 24 h, LNPs containing 200 ng of total RNA were added into each well, cells were collected after 48 h and the knockout efficiency cells of GFP were detected on a flow cytometer.

[8] = system: 293T cells; test: In vitro eGFP plasmid DNA transfection; format: cell-based; details: 100 ng plasmid DNA per well, 48 h, fluorescence microscope, versus lipofectamine 3000
Procedure: 293T cells were inoculated into a 96-well cell culture plate at a density of 40,000 cells per well, LNPs prepared from lipid 284 and lipid 424 was used to coat plasmid DNA expressing eGFP, lipofectamine 3000 was used as a control group, 100 ng of plasmid DNA coated by the above vehicle was given to cells per well, the expression of eGFP was observed through a fluorescence microscope after co-culture for 48 h.

[9] = LNP with RSV-mRNA, lipid ratio of formulation 1, N/P 6
[10] = LNPs after coating mRNA (luciferase)
[11] = LNP formulation 2 (SM102: formulation 1), luciferase mRNA 0.25 mg/kg, tail vein, C57Bl/6 mice, whole body signal 6 h after LNP, 10 min after D-luciferin 150 mg/kg i.p.
[12] = formulation 2, spCas9 mRNA and sgRNA 3/1, N/P 6, DLS

SMILES	Particle size [1, 9] [nm]	PDI [1, 10]	Particle size [1, 10] [nm·days]	Chemiluminescent signal (p/s) [2, 11] [p/s]	RSV true virus neutralizing antibody titer [3]	encapsulation efficiency [4, 9] [%]	transfection (delivery) efficiency of LNP in A549 cells [5]	transfection (delivery) efficiency of LNP in 293T cells [6]	PDI [1, 12]	particle size of LNP [1, 12]	cells with significant knockdown of GFP expression [7] [%]	RNA encapsulation efficiency ([4]; formulation 2, spCas9 mRNA and sgRNA 3/1, N/P 6)	eGFP expression (delivery efficiency and positive cell ratio) [8]	Chemiluminescent signal (p/s) ([2]; LNPs (formulation 2), Flue mRNA 0.25 mg/kg, tail vein injection, whole body signal 6 h after LNP injection, 10 min after 150 mg/kg D-luciferin i.p.) [E+ 10 p/s]
CCCCCCCCCCCCCC(=O)N(CCCN(C)C)C(C(=O)NCCCCCCCC(=O)OC(CCCCCCCC)CCCCCCCC)C(C)(C)C (stereo not drawn) [Lipid 174]	77.6	0.17	202.44 ± 2.28	3.15E+09	can efficiently stimulate the mouse to generate a neutralizing antibody targeting RSV	96.2	relatively high delivery efficiency	relatively high delivery efficiency						
CCCCCCCCCCCCCC(=O)N(CCCN(C)C)C(C(=O)NCCCCCCOC(=O)C(CCCCCC)CCCCCCCC)C(C)(C)C (stereo not drawn) [Lipid 284]				2.42E+10					0.15	about 130 nm	41.2	greater than 95%	delivery efficiencies and positive cell ratios exceed those in control group lipofectamine3000	
CCCCCCCCC(CCCCCC)C(=O)OCCCCCCNC(=O)C(N(CCCN(C)C)C(=O)CCCCCCC(=O)OCC(C)CCCCCCC)C(C)(C)C (stereo not drawn) [Lipid 424]		0.11	153 ± 2.11										delivery efficiencies and positive cell ratios exceed those in control group lipofectamine3000	8.40
